Measured values published in the NIST ThermoML archive (doi:10.1016/j.jct.2012.03.020).

How the values were obtained:
[1] = refractive index (Na D-line) (dimensionless); mn = molality of the nth substance listed, in mol/kg; details: 101 kPa, Liquid, Standard Abbe refractometry
[2] = mn = molality of the nth substance listed, in mol/kg; details: 101 kPa, Liquid, Pycnometric method

Cc1ccc(C(=O)N(O)c2ccccc2)cc1[N+](=O)[O-] [N-hydroxy-4-methyl-3-nitro-N-phenylbenzamide] + CN(C)C=O
Details | mass density, 298.15 K [kg/m3] | mass density, 303.15 K [kg/m3] | mass density, 308.15 K [kg/m3] | mass density, 313.15 K [kg/m3] | refractive index, 298.15 K | refractive index, 303.15 K | refractive index, 308.15 K | refractive index, 313.15 K
[1], m1 = 0.0184 | – | – | – | – | 1.4391 | 1.435 | 1.432 | 1.4299
[1], m1 = 0.0368 | – | – | – | – | 1.4406 | 1.437 | 1.4343 | 1.432
[1], m1 = 0.0551 | – | – | – | – | 1.442 | 1.439 | 1.436 | 1.434
[1], m1 = 0.0735 | – | – | – | – | 1.444 | 1.441 | 1.438 | 1.4354
[1], m1 = 0.0919 | – | – | – | – | 1.447 | 1.4441 | 1.44 | 1.437
[1], m1 = 0.1103 | – | – | – | – | 1.4483 | 1.4455 | 1.442 | 1.439
[1], m1 = 0.1286 | – | – | – | – | 1.4496 | 1.4466 | 1.443 | 1.441
[1], m1 = 0.147 | – | – | – | – | 1.452 | 1.448 | 1.446 | 1.4429
[1], m1 = 0.1654 | – | – | – | – | 1.4535 | 1.45 | 1.448 | 1.444
[1], m1 = 0.1838 | – | – | – | – | 1.455 | 1.452 | 1.4494 | 1.445
[2], m1 = 0.0184 | 947.8 | 942.4 | 938.4 | 933.1 | – | – | – | –
[2], m1 = 0.0368 | 950.2 | 944.9 | 941 | 935.8 | – | – | – | –
[2], m1 = 0.0551 | 952.6 | 947.4 | 943.5 | 938.4 | – | – | – | –
[2], m1 = 0.0735 | 954.8 | 949.7 | 945.9 | 940.9 | – | – | – | –
[2], m1 = 0.0919 | 957 | 952 | 948.2 | 943.3 | – | – | – | –
[2], m1 = 0.1103 | 959.1 | 954.2 | 950.4 | 945.7 | – | – | – | –
[2], m1 = 0.1286 | 961.1 | 956.3 | 952.6 | 947.9 | – | – | – | –
[2], m1 = 0.147 | 963.1 | 958.4 | 954.7 | 950.1 | – | – | – | –
[2], m1 = 0.1654 | 965 | 960.4 | 956.7 | 952.2 | – | – | – | –
[2], m1 = 0.1838 | 966.9 | 962.3 | 958.7 | 954.3 | – | – | – | –

O=C(c1ccc([N+](=O)[O-])cc1)N(O)c1ccccc1 [N-hydroxy-4-nitro-N-phenylbenzamide] + CN(C)C=O
Details | mass density, 298.15 K [kg/m3] | mass density, 303.15 K [kg/m3] | mass density, 308.15 K [kg/m3] | mass density, 313.15 K [kg/m3] | refractive index, 298.15 K | refractive index, 303.15 K | refractive index, 308.15 K | refractive index, 313.15 K
[1], m1 = 0.0234 | – | – | – | – | 1.428 | 1.4264 | 1.4242 | 1.4223
[1], m1 = 0.0469 | – | – | – | – | 1.4289 | 1.4274 | 1.4254 | 1.4235
[1], m1 = 0.0703 | – | – | – | – | 1.4294 | 1.4279 | 1.4259 | 1.4244
[1], m1 = 0.0938 | – | – | – | – | 1.4299 | 1.4285 | 1.4266 | 1.4249
[1], m1 = 0.1172 | – | – | – | – | 1.43 | 1.429 | 1.4271 | 1.4258
[1], m1 = 0.1407 | – | – | – | – | 1.4305 | 1.4295 | 1.4276 | 1.4266
[1], m1 = 0.1641 | – | – | – | – | 1.4315 | 1.4302 | 1.4286 | 1.4271
[1], m1 = 0.1876 | – | – | – | – | 1.4325 | 1.4311 | 1.4292 | 1.4275
[1], m1 = 0.211 | – | – | – | – | 1.4329 | 1.4319 | 1.4301 | 1.4284
[1], m1 = 0.2345 | – | – | – | – | 1.433 | 1.4322 | 1.4304 | 1.4291
[2], m1 = 0.0234 | 947.5 | 942.1 | 938.1 | 932.8 | – | – | – | –
[2], m1 = 0.0469 | 949.7 | 944.4 | 940.5 | 935.3 | – | – | – | –
[2], m1 = 0.0703 | 951.9 | 946.7 | 942.8 | 937.7 | – | – | – | –
[2], m1 = 0.0938 | 954 | 948.9 | 945.1 | 940 | – | – | – | –
[2], m1 = 0.1172 | 956.1 | 951.1 | 947.3 | 942.3 | – | – | – | –
[2], m1 = 0.1407 | 958.2 | 953.2 | 949.5 | 944.5 | – | – | – | –
[2], m1 = 0.1641 | 960.2 | 955.3 | 951.6 | 946.7 | – | – | – | –
[2], m1 = 0.1876 | 962.2 | 957.4 | 953.7 | 948.8 | – | – | – | –
[2], m1 = 0.211 | 964.2 | 959.4 | 955.8 | 950.8 | – | – | – | –
[2], m1 = 0.2345 | 966.1 | 961.4 | 957.8 | 952.9 | – | – | – | –

O=C(c1ccccc1)N(O)c1ccccc1 [N-phenylbenzohydroxamic acid] + CN(C)C=O
Details | mass density, 298.15 K [kg/m3] | mass density, 303.15 K [kg/m3] | mass density, 308.15 K [kg/m3] | mass density, 313.15 K [kg/m3] | refractive index, 298.15 K | refractive index, 303.15 K | refractive index, 308.15 K | refractive index, 313.15 K
[1], m1 = 0.0234 | – | – | – | – | 1.4275 | 1.426 | 1.4238 | 1.422
[1], m1 = 0.0469 | – | – | – | – | 1.4277 | 1.4269 | 1.4249 | 1.423
[1], m1 = 0.0703 | – | – | – | – | 1.428 | 1.4271 | 1.4259 | 1.424
[1], m1 = 0.0938 | – | – | – | – | 1.4285 | 1.4274 | 1.4266 | 1.425
[1], m1 = 0.1172 | – | – | – | – | 1.4288 | 1.4275 | 1.427 | 1.4261
[1], m1 = 0.1407 | – | – | – | – | 1.4289 | 1.428 | 1.4273 | 1.4265
[1], m1 = 0.1641 | – | – | – | – | 1.4295 | 1.4285 | 1.4276 | 1.4271
[1], m1 = 0.1876 | – | – | – | – | 1.43 | 1.4289 | 1.428 | 1.4273
[1], m1 = 0.211 | – | – | – | – | 1.4305 | 1.4295 | 1.4282 | 1.4274
[1], m1 = 0.2345 | – | – | – | – | 1.431 | 1.43 | 1.4288 | 1.4275
[2], m1 = 0.0234 | 947.5 | 942.1 | 938.1 | 932.9 | – | – | – | –
[2], m1 = 0.0469 | 949.7 | 944.4 | 940.5 | 935.4 | – | – | – | –
[2], m1 = 0.0703 | 951.8 | 946.6 | 942.8 | 937.8 | – | – | – | –
[2], m1 = 0.0938 | 953.9 | 948.8 | 945.1 | 940.1 | – | – | – | –
[2], m1 = 0.1172 | 955.9 | 950.9 | 947.3 | 942.4 | – | – | – | –
[2], m1 = 0.1407 | 957.9 | 953 | 949.5 | 944.5 | – | – | – | –
[2], m1 = 0.1641 | 959.9 | 954.9 | 951.5 | 946.6 | – | – | – | –
[2], m1 = 0.1876 | 961.8 | 956.9 | 953.6 | 948.6 | – | – | – | –
[2], m1 = 0.211 | 963.7 | 958.8 | 955.6 | 950.6 | – | – | – | –
[2], m1 = 0.2345 | 965.4 | 960.7 | 957.5 | 952.5 | – | – | – | –
